{
  "source": "paper PMC6934184",
  "about": "“Selective DNA-PKcs inhibition extends the therapeutic index of localized radiotherapy and chemotherapy” (The Journal of Clinical Investigation, 2019)",
  "biological_target": "T1, KIT N822K (Homo sapiens, UniProt P10721, N822K)",
  "T1 construct": "purchased Thermo Fisher Scientific (Life Technologies) SelectScreen",
  "T1 sequence (P10721 26-976 N822K)": "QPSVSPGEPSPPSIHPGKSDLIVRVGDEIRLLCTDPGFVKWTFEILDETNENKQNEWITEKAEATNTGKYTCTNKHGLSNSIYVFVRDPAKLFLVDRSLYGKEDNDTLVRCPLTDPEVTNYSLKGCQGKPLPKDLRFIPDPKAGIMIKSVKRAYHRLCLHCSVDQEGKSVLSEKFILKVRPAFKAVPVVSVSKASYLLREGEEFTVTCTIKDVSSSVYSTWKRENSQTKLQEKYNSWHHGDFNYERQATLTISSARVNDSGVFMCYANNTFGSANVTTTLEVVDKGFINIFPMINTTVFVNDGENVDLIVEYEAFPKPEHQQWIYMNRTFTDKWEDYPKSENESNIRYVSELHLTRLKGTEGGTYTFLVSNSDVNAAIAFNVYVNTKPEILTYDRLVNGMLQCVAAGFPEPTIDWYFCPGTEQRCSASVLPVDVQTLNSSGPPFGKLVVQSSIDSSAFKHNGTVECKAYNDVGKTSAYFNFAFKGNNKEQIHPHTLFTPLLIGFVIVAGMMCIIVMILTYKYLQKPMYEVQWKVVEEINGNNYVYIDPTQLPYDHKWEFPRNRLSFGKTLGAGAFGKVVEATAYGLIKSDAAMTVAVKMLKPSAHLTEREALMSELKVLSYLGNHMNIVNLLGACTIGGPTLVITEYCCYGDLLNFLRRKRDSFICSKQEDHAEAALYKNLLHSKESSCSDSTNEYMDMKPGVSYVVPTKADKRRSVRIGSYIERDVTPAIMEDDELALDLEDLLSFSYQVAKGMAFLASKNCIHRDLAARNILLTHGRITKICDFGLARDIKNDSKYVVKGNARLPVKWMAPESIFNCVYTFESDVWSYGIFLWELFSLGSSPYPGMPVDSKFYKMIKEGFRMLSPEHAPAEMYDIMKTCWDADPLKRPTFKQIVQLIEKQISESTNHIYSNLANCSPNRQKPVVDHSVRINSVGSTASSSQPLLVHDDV",
  "assay": "SelectScreen LanthaScreen",
  "type": "binding",
  "details": "read-out: % displacement",
  "description": "The in vitro kinase selectivity of NU5455 was determined using the SelectScreen Broad Assay Panel (Thermo Fisher Scientific) involving activity and binding assays (Supplemental Table 1). […] Class IA PI3Ks were measured using the p85α subunit.\nKinase [ATP] % Assay Kinase [ATP] % Assay Kinase [ATP] % Assay Kinase [ATP] % Assay […]\nFLT3 Km app 9.1 Z HIPK1 (Myak) Km app 2.8 Z KIT N822K n/a -0.2 L EPHB4 Km app -5.3 Z […]\nSGK (SGK1) Km app 8.5 Z MAP4K2 (GCK) Km app 2.7 Z TLK2 n/a -0.3 L STK38 (NDR) n/a -5.9 L\nMERTK (cMER) Km app 8.3 Z CDK2/cyclin A Km app 2.7 Z TGFBR1 (ALK5) n/a -0.4 L MATK (HYL) Km app -6.3 Z\nFYN Km app 8.3 Z EPHA1 Km app 2.7 Z CLK3 Km app -0.5 Z ABL1 E255K Km app -6.6 Z\nTEC n/a 8.1 L CDK2/cyclin E1 n/a 2.7 L MAP3K14 (NIK) n/a -0.5 L STK17A (DRAK1) n/a -6.6 L\nKIT V654A n/a 8.1 L TESK2 n/a 2.7 L AKT3 (PKB gamma) Km app -0.5 Z JAK2 JH1 JH2 Km app -6.7 Z\nROS1 Km app 8.0 Z SPHK1 Km app 2.7 A MAP3K9 (MLK1) Km app -0.5 Z PRKACB (PRKAC beta) n/a -6.8 L\nFGFR3 K650E Km app 7.9 Z AMPK A2/B1/G1 Km app 2.6 Z IKBKB (IKK beta) Km app -0.6 Z PDGFRA (PDGFR alpha) Km app -6.8 Z\nRAF1 (cRAF) Y340D Y341D 100 7.9 Z DYRK3 Km app 2.6 Z CAMK2A (CaMKII alpha) Km app -0.6 Z NEK9 Km app -7.2 Z\nPI4KA (PI4K alpha) 10 7.8 A CSNK1D (CK1 delta) Km app 2.6 Z PRKCB1 (PKC beta I) Km app -0.7 Z PDK1 Km app -7.3 Z\nHIPK2 Km app 7.8 Z ACVR2A n/a 2.5 L TTK n/a -0.7 L RPS6KB1 (p70S6K) Km app -7.8 Z […]",
  "data": [
    {"compound": "CN(C(=O)CN1CCOCC1)c1ccc2sc3c(-c4cccc5c(=O)cc(N6CC7CCC(C6)O7)oc45)cccc3c2c1", "note": "[NU5455]", "values": [
      {"measurement": "inhibition at 1 µM", "result": -0.2, "unit": "%"}
    ]}
  ]
}
